Reference: the OligoGym collection
Where “and” joins values, the source holds several entries; their conditions need not be identical. Equal values may be shown once. After the bases stand the sugars from the 5' end (letter, count) and the backbone: PS all phosphorothioate, else s phosphorothioate and o phosphodiester by linkage. Methylation of C is not given here. k = constrained ethyl (cEt); d = 2'-deoxy (DNA)

molecular target: MALAT1; settings: ASO, A431, 0.005 µM

Sequence | target mRNA inhibition
CGCTTGAGATTTGGGC (sugars k3 d10 k3, PS) | 33%
GCCGCCTGCTACCTTC (sugars k3 d10 k3, PS) | 12%
CTGGATAAGTATTATA (sugars k3 d10 k3, PS) | 28%
AAGTAGACCAACTAAG (sugars k3 d10 k3, PS) | -22%
ACTAAACAATTACCTA (sugars k3 d10 k3, PS) | 9%
GCCAACACAGTTTGCT (sugars k3 d10 k3, PS) | 30%
CTTCAGGCGAGCTGAG (sugars k3 d10 k3, PS) | -4%
TGCCAACTAATTGCCA (sugars k3 d10 k3, PS) | 23%
ATAACGAAGAGATACC (sugars k3 d10 k3, PS) | 6%
TCACAAGGCAAATCGC (sugars k3 d10 k3, PS) | 7%
TTAATGCACTGGTACA (sugars k3 d10 k3, PS) | 22%
AAACATTGCCTACCAC (sugars k3 d10 k3, PS) | -9%
CACCGCTTGAGATTTG (sugars k3 d10 k3, PS) | 47% and 30% and 26%
GACATTCAAGCTGAAC (sugars k3 d10 k3, PS) | 53%
GCTGTGGTTTTAATAC (sugars k3 d10 k3, PS) | 49% and 57%
TAACAGCACATCATGC (sugars k3 d10 k3, PS) | 21%
CAATAGTACTATAGCA (sugars k3 d10 k3, PS) | 7%
CCACTTGCCAGTTTAA (sugars k3 d10 k3, PS) | 29%
AGCTAGGGAAAAGTGG (sugars k3 d10 k3, PS) | -10%
CACGCCAACACAGTTT (sugars k3 d10 k3, PS) | 36%
CAGACAAGATTCATGA (sugars k3 d10 k3, PS) | 19%

Sequence | target mRNA inhibition
AAGTGCTCACAAGGCA (sugars k3 d10 k3, PS) | -16%
ACTCTAATCACTGTCA (sugars k3 d10 k3, PS) | 35%
TTATAGACGGAGAACA (sugars k3 d10 k3, PS) | 8%
ATTATATGCTCATCAC (sugars k3 d10 k3, PS) | 51%
AAGTATTACTCTAATC (sugars k3 d10 k3, PS) | 9%
TTTAAACGGGTCATCA (sugars k3 d10 k3, PS) | 10%
GTATTTATAGACGGAG (sugars k3 d10 k3, PS) | 0%
CAATTACCTAAACCCA (sugars k3 d10 k3, PS) | 20%
GAAAGATTTGAGCTGC (sugars k3 d10 k3, PS) | -10%
AAGGCTCCATGGTTGT (sugars k3 d10 k3, PS) | 32%
GAACCCCGTCCTGGAA (sugars k3 d10 k3, PS) | -18%
CTTCTGGAAAAGCTAG (sugars k3 d10 k3, PS) | 8%
CCAAATTAATGCACTG (sugars k3 d10 k3, PS) | 13%
AACAATTACCTAAACC (sugars k3 d10 k3, PS) | 16%
TACTGGTTTAAGTTGG (sugars k3 d10 k3, PS) | 67% and 77%
CAGCGGGATCAGAACA (sugars k3 d10 k3, PS) | 23%
CTTATCAATTCACCAA (sugars k3 d10 k3, PS) | 47%
CTGCAAACTTTAGACA (sugars k3 d10 k3, PS) | 7%
AGGCTATTACCTGAAA (sugars k3 d10 k3, PS) | -5%
GATTATCCTGATATTG (sugars k3 d10 k3, PS) | 4%
TATTAAGAGCTGCTAT (sugars k3 d10 k3, PS) | 25%

Sequence | target mRNA inhibition
TCGCAGACAAAGTTTC (sugars k3 d10 k3, PS) | 31%
CCACGGCCCGCACGGA (sugars k3 d10 k3, PS) | 6%
TGTTAACAATTTGCAG (sugars k3 d10 k3, PS) | 20%
ACAGGAAGGCTCCATG (sugars k3 d10 k3, PS) | 25%
ACTTGGAAGTTGATAT (sugars k3 d10 k3, PS) | 4%
CACCAAATCGCACTGG (sugars k3 d10 k3, PS) | -7%
GCATTGCCCTTCTATT (sugars k3 d10 k3, PS) | 70% and 46%
GATATTGTGCTGTTAC (sugars k3 d10 k3, PS) | -17%
GAGGCAAACGAAACAT (sugars k3 d10 k3, PS) | 1%
CGCCTTCCCGTACTTC (sugars k3 d10 k3, PS) | 57%
ATCTAGGCCATCATAC (sugars k3 d10 k3, PS) | 32%
CGTTTTTCAGCTTCCA (sugars k3 d10 k3, PS) | 7%
GTTAACAGCTGCCTGC (sugars k3 d10 k3, PS) | 7%
TAGGTATAGTTTACCA (sugars k3 d10 k3, PS) | 2%
AACCTATTGACTATAT (sugars k3 d10 k3, PS) | 19%
CCCCGCCTCAGTTACA (sugars k3 d10 k3, PS) | 35%
TTCATTACCCCAACTA (sugars k3 d10 k3, PS) | 42%
AGCAGTAGGGCTTCTC (sugars k3 d10 k3, PS) | 3%
CTACCATATCCAAACA (sugars k3 d10 k3, PS) | 21%
ACTCTGATCATAATCT (sugars k3 d10 k3, PS) | 35%
TGACAAGCAATTAACT (sugars k3 d10 k3, PS) | 28%

Sequence | target mRNA inhibition
CTAATAGCAGCGGGAT (sugars k3 d10 k3, PS) | 22%
GAACTAGCACCTGCAG (sugars k3 d10 k3, PS) | 4%
TTATAATAGAGCTACT (sugars k3 d10 k3, PS) | 4%
CCTATAAGGACAGCTA (sugars k3 d10 k3, PS) | 15%
TTACTGGTTTAAGTTG (sugars k3 d10 k3, PS) | 24%
ACTAAGCGAATGGCTT (sugars k3 d10 k3, PS) | -9%
GGTCATCTATTCACAA (sugars k3 d10 k3, PS) | 29%
TACCCCAACTAAACAT (sugars k3 d10 k3, PS) | 18%
CCTGAAGACAGATTAG (sugars k3 d10 k3, PS) | 24%
TTACCTTGAAACCGAT (sugars k3 d10 k3, PS) | 31%
TCGCATCACCGGAATT (sugars k3 d10 k3, PS) | 4%
TACACTCCTTCTCTAA (sugars k3 d10 k3, PS) | -18%
ACAAGGCAAATCGCCA (sugars k3 d10 k3, PS) | 17%
GAATCCCCCCCAAGAT (sugars k3 d10 k3, PS) | -15%
AACTAGCACCTGCAGA (sugars k3 d10 k3, PS) | 17%
GGACTTGGCAGTCTGC (sugars k3 d10 k3, PS) | 27%
CTGGCATGAGTTTATC (sugars k3 d10 k3, PS) | 27%
AGCGGGATCAGAACAG (sugars k3 d10 k3, PS) | 43%
